This note sets out measurements from ChEMBL document CHEMBL1122408, “Pyridinylpiperazines, a new class of selective alpha 2-adrenoceptor antagonists” (J Med Chem, 1983).

Some results are limits rather than exact numbers.

Experiment [1] has as its target T1, Adrenergic receptor alpha-2 (Rattus norvegicus) (UniProt P22086+P19328+P22909).
Description: Antagonistic activity against central alpha-2 adrenergic receptor, in anesthetized rats (reversal of clonidine-induced mydriasis)
Experiment [2] has as its target T2, Alpha-2A adrenergic receptor (Bos taurus, UniProt Q28838).
T2 sequence (Q28838 whole entry): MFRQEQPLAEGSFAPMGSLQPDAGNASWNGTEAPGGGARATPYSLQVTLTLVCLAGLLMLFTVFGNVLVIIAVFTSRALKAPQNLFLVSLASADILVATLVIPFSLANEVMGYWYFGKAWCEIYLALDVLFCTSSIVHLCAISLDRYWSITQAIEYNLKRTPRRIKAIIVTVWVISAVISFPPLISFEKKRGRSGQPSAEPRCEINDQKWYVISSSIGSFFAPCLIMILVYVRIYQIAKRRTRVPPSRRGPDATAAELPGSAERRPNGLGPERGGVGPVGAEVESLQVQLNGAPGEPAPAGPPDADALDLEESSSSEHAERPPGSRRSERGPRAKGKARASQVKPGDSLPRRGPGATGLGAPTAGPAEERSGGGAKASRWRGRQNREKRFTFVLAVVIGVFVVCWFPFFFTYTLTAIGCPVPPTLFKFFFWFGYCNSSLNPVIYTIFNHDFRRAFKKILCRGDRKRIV
Kind of experiment: Binding activity against alpha-2 adrenergic receptor from calf cerebral cortex, using [3H]clonidine as the radioligand. It is filed as tissue-based.

For experiment [3], the target named is T3, Alpha-1A adrenergic receptor (Bos taurus, UniProt P18130).
T3 sequence (P18130 whole entry): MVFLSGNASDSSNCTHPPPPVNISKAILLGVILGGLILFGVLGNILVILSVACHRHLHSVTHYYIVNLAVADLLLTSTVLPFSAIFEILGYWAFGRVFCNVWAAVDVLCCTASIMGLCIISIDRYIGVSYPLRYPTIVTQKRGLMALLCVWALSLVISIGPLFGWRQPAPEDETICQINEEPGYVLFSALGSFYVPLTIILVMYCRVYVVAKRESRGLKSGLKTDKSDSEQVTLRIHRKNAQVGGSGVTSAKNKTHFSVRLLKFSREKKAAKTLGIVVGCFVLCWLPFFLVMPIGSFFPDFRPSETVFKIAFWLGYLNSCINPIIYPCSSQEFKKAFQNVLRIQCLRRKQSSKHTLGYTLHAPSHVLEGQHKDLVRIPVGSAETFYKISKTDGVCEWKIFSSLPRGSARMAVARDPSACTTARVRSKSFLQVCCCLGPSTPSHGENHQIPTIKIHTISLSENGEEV
The experiment in a line: Binding activity against alpha-1 adrenergic receptor from calf cerebral cortex, using [3H]-prazosin as the radioligand. In kind it is tissue-based.

Experiment [4] addresses T4, Adrenergic receptor alpha-2 (Rattus norvegicus, UniProt P22086+P19328+P22909).
T4 sequence (P22086 whole entry): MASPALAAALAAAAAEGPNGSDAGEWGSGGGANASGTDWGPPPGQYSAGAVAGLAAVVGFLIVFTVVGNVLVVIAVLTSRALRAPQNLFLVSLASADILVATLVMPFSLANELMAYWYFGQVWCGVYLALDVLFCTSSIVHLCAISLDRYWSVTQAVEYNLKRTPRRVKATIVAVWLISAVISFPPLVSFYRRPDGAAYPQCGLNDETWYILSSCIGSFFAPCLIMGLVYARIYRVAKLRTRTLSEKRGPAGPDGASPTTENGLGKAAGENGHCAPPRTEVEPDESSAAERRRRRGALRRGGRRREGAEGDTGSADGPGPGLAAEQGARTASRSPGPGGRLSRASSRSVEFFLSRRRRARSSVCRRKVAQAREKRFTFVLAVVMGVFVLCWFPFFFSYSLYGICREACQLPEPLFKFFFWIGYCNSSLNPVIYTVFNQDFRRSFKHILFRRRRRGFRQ
T4 sequence (P19328 whole entry): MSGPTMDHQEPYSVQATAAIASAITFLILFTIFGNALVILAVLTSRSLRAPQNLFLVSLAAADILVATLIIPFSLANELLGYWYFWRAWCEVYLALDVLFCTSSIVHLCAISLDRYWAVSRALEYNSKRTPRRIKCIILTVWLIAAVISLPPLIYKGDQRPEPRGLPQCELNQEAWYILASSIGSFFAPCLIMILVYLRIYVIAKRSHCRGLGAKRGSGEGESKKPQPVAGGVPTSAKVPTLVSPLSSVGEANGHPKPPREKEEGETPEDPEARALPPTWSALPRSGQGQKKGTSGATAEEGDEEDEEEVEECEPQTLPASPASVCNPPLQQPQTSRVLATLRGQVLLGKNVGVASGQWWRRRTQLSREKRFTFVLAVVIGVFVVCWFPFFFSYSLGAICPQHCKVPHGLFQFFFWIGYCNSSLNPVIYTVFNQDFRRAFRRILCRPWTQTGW
T4 sequence (P22909 whole entry): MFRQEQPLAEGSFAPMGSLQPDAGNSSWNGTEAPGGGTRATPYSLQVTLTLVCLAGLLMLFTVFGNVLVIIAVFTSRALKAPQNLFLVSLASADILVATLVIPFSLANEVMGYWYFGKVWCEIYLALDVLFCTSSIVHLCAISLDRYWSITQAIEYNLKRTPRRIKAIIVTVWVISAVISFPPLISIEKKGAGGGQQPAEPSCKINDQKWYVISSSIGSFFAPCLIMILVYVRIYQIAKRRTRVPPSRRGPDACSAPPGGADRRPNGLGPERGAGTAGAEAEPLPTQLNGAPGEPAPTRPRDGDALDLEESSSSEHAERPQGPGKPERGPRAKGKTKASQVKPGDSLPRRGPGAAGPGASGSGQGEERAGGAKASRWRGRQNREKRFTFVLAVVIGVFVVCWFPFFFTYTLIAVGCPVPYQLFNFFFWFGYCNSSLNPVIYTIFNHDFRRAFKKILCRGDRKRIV
The experiment in a line: Presynaptic antagonistic activity against alpha-2 adrenergic receptor from rat, isolated, field-stimulated vas deferens, using clonidine as the agonist. In kind it is functional.

For experiment [5], the target named is T5, Adrenergic receptor alpha-1 (Rattus norvegicus, UniProt P15823+P23944+P43140).
T5 sequence (P15823 whole entry): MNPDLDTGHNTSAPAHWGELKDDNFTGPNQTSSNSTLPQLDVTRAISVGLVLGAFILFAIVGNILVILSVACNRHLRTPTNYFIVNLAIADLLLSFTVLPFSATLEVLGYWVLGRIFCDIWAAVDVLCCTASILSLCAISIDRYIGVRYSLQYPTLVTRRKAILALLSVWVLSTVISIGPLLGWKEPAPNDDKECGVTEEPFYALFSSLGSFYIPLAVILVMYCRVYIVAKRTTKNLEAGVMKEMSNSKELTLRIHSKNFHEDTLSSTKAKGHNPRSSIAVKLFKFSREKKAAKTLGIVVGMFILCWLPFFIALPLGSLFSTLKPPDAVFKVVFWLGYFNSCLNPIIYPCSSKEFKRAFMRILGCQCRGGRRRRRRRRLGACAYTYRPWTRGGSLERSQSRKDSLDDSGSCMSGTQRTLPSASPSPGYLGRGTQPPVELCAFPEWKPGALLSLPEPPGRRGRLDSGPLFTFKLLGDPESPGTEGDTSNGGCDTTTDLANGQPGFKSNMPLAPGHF
T5 sequence (P23944 whole entry): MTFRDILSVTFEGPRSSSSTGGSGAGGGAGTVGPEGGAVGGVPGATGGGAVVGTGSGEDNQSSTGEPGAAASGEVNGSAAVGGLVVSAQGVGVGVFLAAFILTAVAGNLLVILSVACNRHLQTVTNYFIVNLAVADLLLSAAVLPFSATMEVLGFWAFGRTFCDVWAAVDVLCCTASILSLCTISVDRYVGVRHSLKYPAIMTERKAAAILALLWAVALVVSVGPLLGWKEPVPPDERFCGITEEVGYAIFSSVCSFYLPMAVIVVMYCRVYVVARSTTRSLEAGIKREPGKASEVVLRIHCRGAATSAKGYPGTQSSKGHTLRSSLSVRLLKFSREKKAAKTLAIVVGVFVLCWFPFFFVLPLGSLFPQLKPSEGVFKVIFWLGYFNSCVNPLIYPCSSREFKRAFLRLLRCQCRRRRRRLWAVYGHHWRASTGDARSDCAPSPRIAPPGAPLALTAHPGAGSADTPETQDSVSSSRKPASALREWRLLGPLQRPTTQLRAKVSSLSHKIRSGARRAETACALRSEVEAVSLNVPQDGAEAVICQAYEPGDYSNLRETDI
T5 sequence (P43140 whole entry): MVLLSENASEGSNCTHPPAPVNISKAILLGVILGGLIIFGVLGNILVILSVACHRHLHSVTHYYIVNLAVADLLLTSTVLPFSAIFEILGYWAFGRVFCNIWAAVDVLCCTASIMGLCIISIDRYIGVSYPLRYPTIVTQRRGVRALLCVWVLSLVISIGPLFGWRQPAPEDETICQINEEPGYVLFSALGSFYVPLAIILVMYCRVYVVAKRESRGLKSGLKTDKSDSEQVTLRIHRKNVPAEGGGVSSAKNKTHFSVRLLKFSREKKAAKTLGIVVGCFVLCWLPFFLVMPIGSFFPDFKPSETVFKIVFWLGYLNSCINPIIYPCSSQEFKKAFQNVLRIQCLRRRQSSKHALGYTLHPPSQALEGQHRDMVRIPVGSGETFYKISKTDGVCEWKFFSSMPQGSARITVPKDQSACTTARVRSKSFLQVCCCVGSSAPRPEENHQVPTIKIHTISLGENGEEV
Kind of experiment: Presynaptic antagonistic activity against alpha-1 adrenergic receptor from rat, isolated, field-stimulated vas deferens, using methoxamine as the agonist. In kind it is functional.

In experiment [6] the target is T1, Adrenergic receptor alpha-2 (Rattus norvegicus). The experiment in a line: Antagonistic activity against central alpha-2 adrenergic receptor, in anesthetized rats, by reversing the established clonidine-induced mydriasis; 0.3-1. In kind it is functional.

For `COC(=O)[C@@H]1[C@H]2C[C@H]3c4[nH]c5ccccc5c4CCN3C[C@@H]2CC[C@@H]1O`, the AD50 in experiment [1] turned out to be 1.04 mg/kg.

Take `Clc1ccc(N2CCNCC2)nc1`: the Ki was 1340 nM in experiment [2] and 900 nM in experiment [3]. The pA2 in experiment [4] was under 5.8. For the same molecule, the AD50 in experiment [1] is over 3 mg/kg.

Molecule `CN1CCN2c3ccccc3Cc3ccccc3C2C1` (stereo unspecified) gave an AD50 in experiment [1] of over 10 mg/kg.

For the molecule `Ic1cccnc1N1CCNCC1`, the pA2 in experiment [5] is on record as 6; in experiment [4], 6.2. The same molecule gave a Ki in experiment [3] of 1600 nM. The AD50 in experiment [1] came out at 1.95 mg/kg.

As to `CN1CCN(c2ncccc2Br)CC1`, the figures for the pA2 in experiment [5] and in experiment [4] were 6.5 and 7.6, respectively. The molecule also yielded a Ki in experiment [3] of 160 nM. Besides, the AD50 in experiment [1] was determined as 0.74 mg/kg.

Consider `FC(F)(F)c1cccnc1N1CCNCC1`, for which the results for the Ki in experiment [2] and in experiment [3] were 97 nM and 2850 nM, respectively. The same molecule displayed a pA2 in experiment [4] of under 5.8. In experiment [1], this molecule had an AD50 of 3.63 mg/kg.

With `O=[N+]([O-])c1cccnc1N1CCNCC1`, the inhibitory constant (Ki) is 26 nM in experiment [2] and 3800 nM in experiment [3]. This molecule returned a pA2 in experiment [4] of 6.3. The molecule further had an AD50 in experiment [1] of 1.53 mg/kg.

Regarding `Clc1cccc(N2CCNCC2)n1`, the AD50 in experiment [6] came out at 0.3 mg/kg. In addition, the pA2 in experiment [5] was 6; in experiment [4], 6.8. In experiment [3], this molecule yielded a Ki of 375 nM.

`Clc1cnccc1N1CCNCC1`: the Ki in experiment [2] is 390 nM; in experiment [3], 6800 nM. The same molecule gave a pA2 in experiment [4] of under 5.8. The same molecule returned an AD50 in experiment [1] of over 3 mg/kg.

Regarding `N#Cc1cccnc1N1CCNCC1`, the figures for the Ki in experiment [2] and in experiment [3] were 14 nM and 2000 nM, respectively. This molecule registered a pA2 in experiment [4] of 6.1. The AD50 in experiment [1] was 1.07 mg/kg.

For `COC(=O)[C@H]1[C@H]2C[C@H]3c4[nH]c5ccccc5c4CCN3C[C@H]2CC[C@@H]1O`, the AD50 in experiment [1] was 1.1 mg/kg.

Regarding `Cc1ccnc(N2CCNCC2)c1Cl`, the Ki in experiment [2] is 74 nM; in experiment [3] it was 4300 nM. In experiment [4], this molecule registered a pA2 of 5.9. This molecule also came in with an AD50 in experiment [1] of 14 mg/kg.

On to `Clc1cccnc1N1CCNCC1`, for which the pA2 amounted to 5.7 in experiment [5] and 6.9 in experiment [4]. Besides, the affinity in experiment [3], expressed as Ki, was 1800 nM. Further, in experiment [1], the AD50 came to 0.44 mg/kg.

Turning to `NC(=O)c1cccnc1N1CCNCC1`, the Ki turned out to be 5200 nM in experiment [2] and 62000 nM in experiment [3]. Moreover, the pA2 in experiment [4] is given as under 5.8. Further, the AD50 in experiment [1] is over 3 mg/kg.

For `Nc1cccnc1N1CCNCC1`, the values for the Ki in experiment [2] and in experiment [3] were 440 nM and 31000 nM, respectively. The molecule also had a pA2 in experiment [4] of under 5.8. In addition, the AD50 in experiment [1] is over 3 mg/kg.

Take `c1ccc2c(c1)OCC(C1=NCCN1)O2` (stereo unspecified) [IDAZOXAN]: the results for the Ki in experiment [2] and in experiment [3] were 1.5 nM and 500 nM, respectively. In experiment [1], the AD50 was determined as 0.05 mg/kg.

For the molecule `Clc1cnc(N2CCNCC2)c(Cl)c1`, the results for the Ki in experiment [2] and in experiment [3] were 500 nM and 800 nM, respectively. For the same molecule, in experiment [4], the pA2 is under 5.8. Besides, the AD50 in experiment [1] was over 3 mg/kg.

As for `c1ccc(N2CCNCC2)nc1`, the results for the pA2 in experiment [5] and in experiment [4] were 5.7 and 6.4, respectively. The Ki in experiment [3] amounted to 2400 nM. The AD50 in experiment [1] came to 1.28 mg/kg.

With `Brc1cccnc1N1CCNCC1`, the pA2 in experiment [5] stood at 5.8; in experiment [4], 6.6. Moreover, the affinity in experiment [3], expressed as Ki, was 1480 nM. In addition, the AD50 in experiment [1] is 0.68 mg/kg.

Usually Ki stands for the equilibrium dissociation constant of an inhibitor or competing ligand from its target. A higher Ki goes with lower affinity. A word on the pA2: it is a measure of antagonist potency on a negative log scale.
